Assays:
[1] = test system: licking of the formalin injected paw (Phase 2, 20-30 min); assay: Formalin paw test, determination of ID50 of single agents (experiment 1); type: in vivo, male mice (Hsd Ola:ICR); conditions: single agent; for Effect on Phase 2 licking: i.v., increasing doses; for ID50 (μg/kg) for 2nd phase of licking (95% confidence limits): intravenously 15 min before formalin (20 μl; 3%), 20-30 min after formalin
Method: Six mice were observed simultaneously.
All test agents were administered via a tail vein. […] Each animal was used once only.
Animals (n=6 for each dose/drug) received increasing doses of morphine, ketorolac, indomethacin, the hydrochloride salt of Org 41793 (Org 43273) or vehicle administered intravenously 15 min before injection of formalin (20 μl; 3%) into the plantar surface of the left hindpaw. Data were plotted as the mean time spent licking the formalin injected paw±s.e.m for each of the two time periods (0-5 & 20-30 min) and an ID50 for the group calculated. To calculate the ID50 for the second phase of licking, the time spent licking following test drug treatment was calculated as a percentage of the time spent licking by vehicle-treated mice. An ID50 was then calculated using a non-linear regression fit, sigmoidal dose-response with constants of 0 and 100 for the bottom and top, respectively (GraphPad Prism software).

[2] = test system: licking of the formalin injected paw (Phase 2, 20-30 min); assay: Formalin paw test, co-administration in constant dose ratio with isobolographic analysis (experiment 2); conditions: for Theoretical ID50 (μg/kg) for 2nd phase of licking (95% confidence limits): component dose at theoretical additive point; for Theoretical ID50 (μg/kg) for 2nd phase of licking (95% confidence limits) / Experimental ID50 (μg/kg) for 2nd phase of licking (95% confidence limits): i.v.; for Experimental ID50 (μg/kg) for 2nd phase of licking (95% confidence limits): component dose, constant dose ratio; for Effect on amount of morphine or Org 41793 required to elicit antinociception: second phase of licking
Method: In mice, recording the time spent licking or biting the injected paw is the most common method of behavioural assessment.
Experiments were performed on male mice (Hsd Ola:ICR) from Harlan UK Ltd. (Bicester, UK). Subjects were grouped on receipt and acclimatised for a minimum of 5 days at a constant temperature (21°±1° C.) under a 12-hour light/12-hour dark cycle. Mice were tail-marked. At the end of the study all mice were euthanized with CO2 or cervical dislocation.
Following subcutaneous formalin injection into the plantar surface of the paw, animals were placed in a Perspex box on a glass plate. A piece of black cardboard was placed on top of the box. A video camera (Sony) placed beneath the glass plate was then used to record the mice for 45 min after formalin injection. Six mice were observed simultaneously. The video camera was linked to a PC and the video images captured as MPEG files using a software package (Studio MP10). The MPEG file was later transferred to CD for offline analysis. A behavioural scoring program (The Observer) was then used to measure the time the mice spent licking the injected paw. Two blocks of time were analysed: 0-5 min (Phase 1) and 20-30 min (Phase 2). These two time periods were chosen to reflect the two phases of licking that typically occur after formalin injection.
All test agents were administered via a tail vein. […] Animals were weighed immediately prior to testing and all test agents were administered in a dosing volume of 5 ml/kg. Each animal was used once only.
The ID50 values calculated in experiment 1 for the second phase licking as previously described were used for this experiment. […] The ID50 of the total dose of the mixture was then calculated from this dose-response curve.
Testing for a significant difference by t-test was not possible since confidence intervals (CIs) were not symmetric around the theoretical additive ID50.

[3] = combination Org 41793 with ketorolac
[4] = combination Org 41793 with ketorolac, listed as ketorolac
[5] = combination Org 41793 with indomethacin
[6] = combination Org 41793 with indomethacin, listed as indomethacin

SMILES	Effect on Phase 2 licking [1]	ID50 (μg/kg) for 2nd phase of licking (95% confidence limits) [1]	ID50 (μg/kg) for 2nd phase of licking (95% confidence limits) ([1]; listed as ketorolac)	Theoretical ID50 (μg/kg) for 2nd phase of licking (95% confidence limits) [2, 3]	Theoretical ID50 (μg/kg) for 2nd phase of licking (95% confidence limits) [2, 4]	Experimental ID50 (μg/kg) for 2nd phase of licking (95% confidence limits) [2, 3]	Experimental ID50 (μg/kg) for 2nd phase of licking (95% confidence limits) [2, 4]	Effect on amount of morphine or Org 41793 required to elicit antinociception [2]	ID50 (μg/kg) for 2nd phase of licking (95% confidence limits) ([1]; listed as indomethacin)	Theoretical ID50 (μg/kg) for 2nd phase of licking (95% confidence limits) [2, 5]	Theoretical ID50 (μg/kg) for 2nd phase of licking (95% confidence limits) [2, 6]	Experimental ID50 (μg/kg) for 2nd phase of licking (95% confidence limits) [2, 5]	Experimental ID50 (μg/kg) for 2nd phase of licking (95% confidence limits) [2, 6]	ID50 (μg/kg) for 2nd phase of licking (95% confidence limits) ([1]; listed as morphine)
O=C(c1ccccc1)c1ccc2n1CCC2C(=O)O (racemic) [Ketorolac, (±)-5-benzoyl-2,3-dihydro-1H-pyrrolizine-1-carboxylic acid, 2-amino-2-(hydroxymethyl)-1,3-propanediol]	dose-dependent inhibition	70 (40-134) μg/kg	70 µg/kg	Ketorolac: 35 (20-67) μg/kg	35 µg/kg	Ketorolac: 5 (2-12) μg/kg	5 µg/kg	opioid sparing	–	–	–	–	–	–
COc1ccc2c(c1)c(CC(=O)O)c(C)n2C(=O)c1ccc(Cl)cc1 [Indomethacin, indomethacin]	dose-dependent inhibition	340 (218-531) μg/kg	–	–	–	–	–	opioid sparing	340 µg/kg	Indomethacin: 170 (109- μg/kg	170 µg/kg	Indomethacin: 40 (26-58) μg/kg	40 µg/kg	–
C=CCN1C[C@H](C)N([C@@H](c2cccc(O)c2)c2cccc(C(=O)N(C)c3cccc(F)c3)c2)C[C@H]1C [Org 41793, 3-[(αR)-α-((2S,5R)-4-allyl-2,5-dimethyl-1-piperazinyl)-3-hydroxybenzyl]-N-(3-fluorophenyl)-N-methylbenzamide]	dose-dependent inhibition	92 (60-140) μg/kg	–	–	–	–	–	–	–	–	–	–	–	–
CN1CC[C@]23c4c5ccc(O)c4O[C@H]2[C@@H](O)C=C[C@H]3[C@H]1C5.O.O.O.O.O.O=S(=O)(O)O [Morphine, Morphine sulphate pentahydrate]	dose-dependent inhibition	870 (496-1522) μg/kg	–	–	–	–	–	–	–	–	–	–	–	870 µg/kg

From patent US7375106B2, “Synergistic combination of an opioid analgesic and a NSAID” (N.V. Organon, priority 2002, dated 2008)
